Experimental findings from patent publication US9365583B2, “Substituted pyrazoles and uses thereof” (Genentech, Inc., priority 2013, dated 2016) are described below.

The target in the assay is T1, N-terminally GST-tagged DLK (catalytic domain amino acid 1-520) (Homo sapiens, UniProt Q12852).
T1 construct: N-terminally GST-tagged DLK (catalytic domain amino acid 1-520); purchased Carna Bioscience
T1 sequence (Q12852 1-520): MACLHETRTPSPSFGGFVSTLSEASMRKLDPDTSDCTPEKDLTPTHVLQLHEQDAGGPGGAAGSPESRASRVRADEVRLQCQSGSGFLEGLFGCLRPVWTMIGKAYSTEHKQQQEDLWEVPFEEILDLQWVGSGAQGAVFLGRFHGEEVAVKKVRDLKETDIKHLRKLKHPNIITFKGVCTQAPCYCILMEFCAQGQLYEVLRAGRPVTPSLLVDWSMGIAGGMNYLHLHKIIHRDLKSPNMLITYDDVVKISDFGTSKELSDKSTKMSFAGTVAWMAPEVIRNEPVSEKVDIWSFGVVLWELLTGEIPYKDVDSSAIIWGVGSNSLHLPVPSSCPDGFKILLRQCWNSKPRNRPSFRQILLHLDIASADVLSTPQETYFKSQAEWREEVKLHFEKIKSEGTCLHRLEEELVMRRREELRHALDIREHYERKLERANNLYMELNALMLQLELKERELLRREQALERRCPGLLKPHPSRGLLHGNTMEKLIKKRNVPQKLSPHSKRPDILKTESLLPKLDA
Put plainly: DLK TR-FRET inhibition assay. In kind it is biochemical. As to conditions: 5 nM GST-DLK, 40 nM HIS-MKK4 K131M substrate, 30 μM ATP, 60 minutes at ambient temperature. The procedure, abridged: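 Phosphorylated MKK4 was quantified by TR-FRET (Eu-labelled anti-phospho-MKK4, D2 anti-HIS; 3 h, 665 and 615 nm emission) after EDTA quench. Reactions held 5 nM GST-tagged DLK catalytic domain (1-520), 40 nM HIS-MKK4 K131M substrate, 30 μM ATP and compound (3-fold series from 20 uM), 60 min, room temperature, pH 7.5.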
In turn, `COC1CCN([C@H]2C[C@@H]3[C@H](C2)[C@H]3c2cc(-c3cnc(N)c(OC(F)(F)F)c3)nn2C(C)C)CC1` [compound 248, 5-(1-isopropyl-5-((1R,3r,5S,6r)-3-(4-methoxypiperidin-1-yl)bicyclo[3.1.0]hexan-6-yl)-1H-pyrazol-3-yl)-3-(trifluoromethoxy) pyridin-2-amine] gave a Ki of 2.8 nM. This lies in the single-digit nanomolar range.

For the molecule `COCCN(C)[C@@H]1C[C@@H]2[C@H](C1)[C@H]2c1cc(-c2cnc(N)c(C(F)(F)F)c2)nn1C(C)C` [compound 291, 5-(1-isopropyl-5-((1R,3s,5S,6r)-3-((2-methoxyethyl)(methyl)amino)bicyclo[3.1.0]hexan-6-yl)-1H-pyrazol-3-yl)-3-(trifluoromethyl) pyridin-2-amine], the Ki worked out at 4.7 nM.

`CC(C)n1nc(-c2cnc(N)c(C(F)(F)F)c2)cc1[C@H]1[C@@H]2C[C@H](n3cccn3)C[C@@H]21` [compound 111, 5-(5-((1R,3r,5S,6r)-3-(1H-pyrazol-1-yl)bicyclo[3.1.0]hexan-6-yl)-1-isopropyl-1H-pyrazol-3-yl)-3-(trifluoromethyl)pyridin-2-amine]: the Ki was 8.61 nM. The molecule `CC(C)n1nc(-c2cnc(N)c(OC(F)F)c2)cc1[C@H]1[C@@H]2C[C@@H](N3CC4(CCCO4)C3)C[C@@H]21` [compound 223, 5-(5-((1R,3s,5S,6r)-3-(5-oxa-2-azaspiro[3.4]octan-2-yl)bicyclo [3.1.0]hexan-6-yl)-1-isopropyl-1H-pyrazol-3-yl)-3-(difluoro-methoxy)pyridin-2-amine] displayed a Ki of 2.6 nM. With `COC1CCN([C@@H]2C[C@@H]3[C@H](C2)[C@H]3c2cc(-c3cnc(N)c(OC(F)F)c3)nn2C(C)C)CC1` [compound 250, 3-(difluoromethoxy)-5-(1-isopropyl-5-((1R,3s,5S,6r)-3-(4-methoxy-piperidin-1-yl)bicyclo[3.1.0]hexan-6-yl)-1H-pyrazol-3-yl) pyridin-2-amine], the Ki is 2 nM. The Ki values of the last two molecules are within 1.5-fold of each other. The value for `CC(C)n1nc(-c2cnc(N)c(C(F)(F)F)c2)cc1[C@H]1[C@@H]2C[C@@H](N3CCN(C)CC3)C[C@@H]21` [compound 67, 5-(1-isopropyl-5-((1R,3s,5S,6r)-3-(4-methylpiperazin-1-yl)bicyclo [3.1.0]hexan-6-yl)-1H-pyrazol-3-yl)-3-(trifluoromethyl)pyridin-2-amine] was 3.93 nM; that for `CC(C)n1nc(-c2cnc(N)c(OC(F)F)c2)cc1[C@H]1[C@@H]2C[C@@H](N3CCOCC3)C[C@@H]21` [compound 137, 3-(difluoromethoxy)-5-(1-isopropyl-5-((1R,3s,5S,6r)-3-morpholino-bicyclo[3.1.0]hexan-6-yl)-1 H-pyrazol-3-yl)pyridin-2-amine] was 3.34 nM. The molecule `CC(C)n1nc(-c2cnc(N)c(C(F)(F)F)c2)cc1[C@H]1[C@@H]2C[C@H](N3CCOC[C@@H]3C)C[C@@H]21` [compound 98, 5-(1-isopropyl-5-((1R,3r,5S,6S)-3-((S)-3-methylmorpholino)bicyclo[3.1.0]hexan-6-yl)-1H-pyrazol-3-yl)-3-(trifluoromethyl) pyridin-2-amine] came in with an inhibition constant Ki of 4.89 nM. `CC(C)n1nc(-c2cnc(N)c(OC(F)(F)F)c2)cc1[C@H]1[C@@H]2C[C@@H](N3CCN(C)C[C@@H]3C)C[C@@H]21` [compound 237, 5-(5-((1R,3s,5S,6S)-3-((S)-2,4-dimethylpiperazin-1-yl)bicyclo [3.1.0]hexan-6-yl)-1-isopropyl-1H-pyrazol-3-yl)-3-(trifluoro-methoxy)pyridin-2-amine] came in with a Ki of 1.1 nM. Molecule `CC(C)n1nc(-c2cnc(N)c(OC(F)F)c2)cc1[C@H]1[C@@H]2C[C@H](OCC(C)(C)O)C[C@@H]21` [compound 168, 1-(((1R,3r,5S,6r)-6-(3-(6-ammo-5-(difluoromethoxy)pyridin-3-yl)-1-isopropyl-1H-pyrazol-5-yl)bicyclo[3.1.0]hexan-3-yl)oxy)-2-methylpropan-2-ol] showed a Ki of 2.7 nM.

For the molecule `CC(C)n1nc(-c2cnc(N)c(OC(F)F)c2)cc1[C@H]1[C@@H]2C[C@@H](N3CCOC[C@H]3C)C[C@@H]21` [compound 82, 3-(difluoromethoxy)-5-(1-isopropyl-5-((1R,3s,5S,6R)-3-((R)-3-methylmorpholino)bicyclo[3.1.0]hexan-6-yl)-1H-pyrazol-3-yl) pyridin-2-amine], the affinity, expressed as Ki, was 1.43 nM.

`CC(C)n1nc(-c2cnc(N)c(C(F)(F)F)c2)cc1[C@H]1[C@@H]2C[C@H](N3CCN(CC(F)F)CC3)C[C@@H]21` [compound 265, 5-(5-((1R,3r,5S,6r)-3-(4-(2,2-difluoroethyl)piperazin-1-yl)bicyclo[3.1.0]hexan-6-yl)-1-isopropyl-1H-pyrazol-3-yl)-3-(trifluoromethyl)pyridin-2-amine] registered a Ki of 2.5 nM. The figure for `CC(C)n1nc(-c2cnc(N)c(OC(F)(F)F)c2)cc1[C@H]1[C@@H]2C[C@H](N3CC4(COC4)C3)C[C@@H]21` [compound 57, 5-(5-((1R,3r,5S,6r)-3-(2-oxa-6-azaspiro[3.3]heptan-6-yl)bicyclo [3.1.0]hexan-6-yl)-1-isopropyl-1H-pyrazol-3-yl)-3-(trifluoro-methoxy)pyridin-2-amine] is 1.88 nM; for `CC(C)n1nc(-c2cnc(N)c(CC(F)(F)F)c2)cc1[C@H]1[C@@H]2C[C@@H](N3CCOCC3)C[C@@H]21` [compound 281, 5-(1-isopropyl-5-((1R,3s,5S,6r)-3-morpholinobicyclo[3.1.0]hexan-6-yl)-1H-pyrazol-3-yl)-3-(2,2,2-trifluoroethyl)pyridin-2-amine] it is 18.4 nM.

`CC(C)n1nc(-c2cnc3cnn([C@@H](C)c4ccccn4)c3c2)cc1[C@H]1[C@@H]2C[C@H](N3CCOCC3)C[C@@H]21` [compound 34, 4-((1R,3S,5S,6r)-6-(1-isopropyl-3-(1-((S)-1-(pyridin-2-yl)ethyl)-1H-pyrazolo[4,3-b]pyridin-6-yl)-1H-pyrazol-5-yl)bicyclo[3.1.0]hexan-3-yl)morpholine]: the Ki came out at 4.19 nM. The figure for `CCN1CCN([C@@H]2C[C@@H]3[C@H](C2)[C@H]3c2cc(-c3cnc(N)c(OC(F)(F)F)c3)nn2C(C)C)CC1` [compound 15, 5-(5-((1R,3s,5S,6r)-3-(4-ethylpiperazin-1-yl)bicyclo[3.1.0]hexan-6-yl)-1-isopropyl-1H-pyrazol-3-yl)-3-(trifluoromethoxy) pyridin-2-amine] is 3.58 nM; for `CC(C)n1nc(-c2cnc(N)c(OC(F)(F)F)c2)cc1[C@H]1[C@@H]2C[C@@H](N3CC4(CN(C)CCO4)C3)C[C@@H]21` [compound 219, 5-(1-isopropyl-5-((1R,3s,5S,6r)-3-(8-methyl-5-oxa-2,8-diazaspiro [3.5]nonan-2-yl)bicyclo[3.1.0]hexan-6-yl)-1H-pyrazol-3-yl)-3-(trifluoromethoxy)pyridin-2-amine] it is 2.2 nM; for `Nc1ncc(-c2cc([C@H]3[C@@H]4C[C@@H](N5CCOCC5)C[C@@H]43)nn2CC2CC2)cc1OC(F)F` [compound 268, 5-(1-(cyclopropylmethyl)-3-((1R,3s,5S,6r)-3-morpholinobicyclo [3.1.0]hexan-6-yl)-1H-pyrazol-5-yl)-3-(difluoromethoxy) pyridin-2-amine] it is 221 nM.
